Residues, ends and D or L forms follow the SMILES beside them.
Legend:
Type in all cases: in vivo, rat
high-fat fed rats = test: Example 33: ROS production and redox state in rats fed a high-fat diet
Procedure: Ten rats maintained on a high-fat diet will receive daily intraperitoneal injections of peptide conjugates (1.5 mg/kg); aromatic-cationic peptides (an equivalent molar dose of aromatic-cationic peptide based on the concentration of the aromatic-cationic peptide administered in the peptide conjugate treatment group); SPN10(s) (an equivalent molar dose of SPN10 based on the concentration of SPN10 administered in the peptide conjugate treatment group); or SPN10(s) in combination with aromatic-cationic peptides (e.g., an equivalent molar dose of SPN10 based on the concentration of SPN10 administered in the peptide conjugate treatment group and an equivalent molar dose of aromatic-cationic peptide based on the concentration of aromatic-cationic peptide administered in the peptide conjugate treatment group) dissolved in phosphate-buffered saline. Dose response curves for peptide conjugates, aromatic-cationic peptides and SPN10(s) with or without aromatic-cationic peptides will be established in vitro and in vivo. Mitochondrial function will be measured according to the methods described herein.
Next, rats will be placed on a high-fat diet (60%) for six weeks with daily administration of vehicle, peptide conjugates, aromatic-cationic peptides, or SPN10(s) with or without aromatic-cationic peptides.
Protein homogenates will be prepared by homogenizing 100 mg of frozen muscle in a buffer containing 10 mM Tris, 1 mM EDTA, 1 mM EGTA, 2 mM NaOrthovanadate, 2 mM NaPyrophosphate, 5 mM NaF, and protease inhibitor cocktail (Complete), at pH 7.2. After homogenization, 1% Triton X-100 will be added to the protein suspension, which will be vortexed and incubated on ice for 5 minutes. Samples will be centrifuged at 10,000 rpm for 10 minutes to pellet the insoluble debris. For GSSG measurement, tissue will be homogenized in a solution containing 20 mM Methyl-2-vinylpyridinium triflate to scavenge all reduced thiols in the sample. Total GSH and GSSG will be measured using a commercially available GSH/GSSG assay (Oxis Research Products, Percipio Biosciences, Foster City, CA, U.S.A).
To establish a link between the increased mitochondrial H2O2 production brought about by high-fat diet and its effect on overall redox environment of skeletal muscle, both GSH and GSSG will be measured in skeletal muscle from standard chow-fed and high-fat fed rats 1) following a 10 hour fast, and 2) 1 hour after administration of a standard glucose load (oral gavage, 10 hour fasted).

Sprague-Dawley rats = test: Example 40: contrast-induced nephropathy in diabetic animals; conditions: iohexol
Procedure: Animal model: Impaired renal function caused by diabetes is one of the major predisposing factors for contrast induced nephropathy (McCullough, et al., J. Am. Coll. Cardio., 2008, 51, 1419-1428). In this experiment, a total of 57 Sprague-Dawley rats will be fed a high-fat diet for 6 weeks, followed by the administration of low-dose streptozotocin (30 mg/kg) for a period of 9 weeks. Blood glucose, serum creatinine and Cystatin C will be measured. Animals meeting the following criteria (n=20) will advance to CIN studies: Scr>250 μM, Cystatin C>750 ng/mL and blood glucose>=[…]. […]
On day 1, serum samples will be collected and total urine protein will be measured using a Bradford assay. […] Samples will be analyzed by students t-test and differences will be considered significant at p<0.05.
Renal function: Renal function will be assessed by determining serum and urinary creatinine at baseline, 48 hours and 72 hours following dye administration. The creatinine clearance will be calculated based on the serum and urinary creatinine and urinary volume. Urinary protein concentration will be determined by Bradford Protein Assay kit (Sigma, St. Louis, MO, U.S.A.), and Cystatin C will be measured using a Westang Rat Cystatin C kit (Shanghai, P.R.C.).

Sprague Dawley rats = test: Example 54: metabolic syndrome (HFD/STZ); conditions: 10 weeks of administration
Procedure: Sprague Dawley rats will be fed with a high-fat diet (HFD) for 6 weeks and then administered a single dose of STZ (30 mg/kg). The rats will be maintained on HFD until 14 weeks after STZ administration. Control subjects fed normal rat chow (NRC) for 6 weeks will be administered citrate buffer without STZ. After 5 months, diabetic subjects will be treated with peptide conjugates (10 mg/kg, 3 mg/kg, or 1 mg/kg s.c.q.d. (subcutaneously, once daily)), aromatic-cationic peptides (an equivalent molar dose of aromatic-cationic peptide based on the concentration of the aromatic-cationic peptide administered in the peptide conjugate group), SPN10(s) (an equivalent molar dose of SPN10 based on the concentration of SPN10 administered in the peptide conjugate group), SPN10(s) in combination with aromatic-cationic peptides (e.g., an equivalent molar dose of SPN10 based on the concentration of SPN10 administered in the peptide conjugate treatment group and an equivalent molar dose of aromatic-cationic peptide based on the concentration of aromatic-cationic peptide administered in the peptide conjugate treatment group) or control vehicle (saline) 5 days per week for 10 weeks. The study groups will be as follows: • Group A: HFD/STZ+peptide conjugates 10 mg/kg s.c.q.d. (Mon-Fri.), n=12; • Group B: HFD/STZ+peptide conjugates 3 mg/kg s.c.q.d. […]

## N=C(N)NCCC[C@H](NC(=O)[C@@H](N)Cc1c[nH]c2ccccc12)C(=O)N[C@@H](Cc1c[nH]c2ccccc12)C(=O)N[C@@H](CCCCN)C(N)=O [SPN10, H-L-Trp-L-Arg-L-Trp-L-Lys-NH2] (H-WRWK-NH2)
high-fat fed rats; even following glucose ingestion
  GSH/GSSG ratio in skeletal muscle: preserve the GSH/GSSG ratio near control levels
high-fat fed rats; high-fat diet (60%) six weeks, daily administration
  mitochondrial H2O2 production during succinate and palmitoyl-carnitine supported respiration: reduction in mitochondrial H2O2 production
high-fat fed rats; in vitro and in vivo
  mitochondrial H2O2 production during succinate-supported respiration (dose response curves): reduction in mitochondrial H2O2 production
high-fat fed rats; skeletal muscle
  reduction in total cellular glutathione content (GSHt) by high-fat feeding: irrespective of treatment
Sprague-Dawley rats
  elevated serum Cystatin C and reduced creatinine clearance following contrast dye: attenuate these effects
Sprague Dawley rats
  blood triglyceride level of HFD/STZ rats: reduced to normal levels

Reference: patent US20240108740A1, “THERAPEUTIC COMPOSITIONS INCLUDING SPN10 AND USES THEREOF” (Stealth BioTherapeutics Inc., priority 2022, published 2024)
